Consider 1 compound from patent publication US9724262B2, “Methods of diagnosing and treating neonatal reversion to fetal consciousness” (The Regents of the University of California, priority 2013, dated 2017).

Data set [1] relates to healthy neonatal foal. Kind of data set: Neurobehavioural (NB) scoring of a healthy neonatal foal infused i.v. with allopregnanolone. In kind it is in vivo, Quarter Horse. The protocol: A healthy neonatal 50 kg Quarter Horse colt from the research herd at the School of Veterinary Medicine, University of California, Davis was selected for the infusion. The foal was born from a healthy Quarter Horse mare with a normal gestational length without complications, and normal observed parturition except that the placental passage was prolonged. Although retention of the placenta for 7 h post birth is not considered normal by most standards, the placenta was evaluated and determined to be complete and normal. […] The foal was deemed healthy based upon complete physical and neurological examinations immediately post birth. […] Repeat physical and neurological examinations at age 6 h, immediately prior to infusion, were also normal.
(§1) Intravenous catheters were placed aseptically in the right jugular vein for sample collection and in the left jugular vein for infusion of allopregnanolone. Allopregnanolone (5 alpha-pregnan-3 alpha-ol-20-one; Steraloids Inc., Newport, R.I., USA) was dissolved in an ethanol-based solution to a total concentration of 9 mg/ml. Infused dose and concentration of allopregnanolone in this foal were determined based on concentrations reported in in vivo studies in the modulation of the HPA axis in male rats (Naert, et al., (2007) Psychoneuroendocrinology 32, 1062-1078). An initial bolus of 0.05 mg/kg bwt i.v. of allopregnanolone was given followed by a constant rate infusion (CRI) of 0.02 mg/kg bwt/min using an infusion pump. Based on clinical effects of the initial dosage, a second bolus of 0.1 mg/kg bwt i.v. was given after 5 min and followed by a CRI of 0.04 mg/kg bwt/min for 5 min. The infusion was discontinued for 30 min to allow observation of any neurobehavioural (NB) alterations, and then a final bolus of 0.2 mg/kg bwt i.v. was given.
Neurobehavioural alterations were recorded and graded through a NB scoring system developed by the authors for the assessment of foals with NMS (Table 2). From preliminary work, foals with NMS had scores>8 from a range of 0 (normal foal) to 20 (comatose with paroxysmal activity). Mentation was defined as: normal if the foal was alert and responsive; quiet to obtunded if the foal was apparently lethargic but responsive to external stimuli (e.g., touch, sound); stuporous if level of consciousness was decreased but responsive to painful stimuli (e.g. pinching skin with haemostats); and comatose if the foal lost consciousness and was unresponsive to any stimuli. Paroxysmal activity was defined as abnormal events such as seizures or seizure-like activity, rhythmic limb movements, tremors or paddling. The NB scores were calculated at 5 min intervals throughout the infusion period. Following the infusion, the foal was observed hourly for the first 6 h and then at 12 h intervals for 2 days.
For NB comparison, a second age-matched clinically healthy neonatal Quarter Horse colt was infused with 99.9% ethanol diluted with 0.9% saline to a final concentration of 5% ethanol without allopregnanolone. Infusion of this solution followed the same protocol (dosage [based on 5% ethanol] and rate) of administration as for the first foal. The study was approved by an Animal Care and Use protocol from University of California, Davis.

Data set [2] is described as follows: Plasma steroid and hormone concentrations (LC-MS) in the foal infused with allopregnanolone. In kind it is in vivo, Quarter Horse. How it is done: as §1
Heparinised blood samples were collected at birth, age 6 h and at 15 min intervals during the infusion. Blood was immediately centrifuged following collection and plasma stored at −80° C. until analysed by liquid chromatography mass spectrometry (LC-MS) utilising on-line sample extraction by turbulent flow chromatography (TFC) and detection by select reaction monitoring (SRM) on a triple quadrupole mass spectrometer. […] Free concentrations of 34 steroids were monitored in one analytical method over a 24-min run time. Detection and quantitation was accomplished using 3 or more SRM transitions per compound for all compounds other than 17-hydroxy pregnenolone where single ion monitoring (SIM) was utilised. This method was validated and the following assessed for each analyte: linearity, limit of detection, limit of quantitation, accuracy, precision, matrix effects, extraction recovery and potential endogenous interferences. […]

[3] abbreviates: age 6 ½ h, 15 minutes post initial infusion.

Regarding `CC(=O)[C@H]1CC[C@H]2[C@@H]3CC[C@H]4C[C@H](O)CC[C@]4(C)[C@H]3CC[C@]12C` [allopregnanolone, 5 alpha-pregnan-3 alpha-ol-20-one], the “Time after cessation of the infusion to signs of increased responsiveness” value in data set [1] (after cessation of the infusion) is given as not above 8 min. Moreover, the Neurobehavior score in data set [1] (age 6 ¼ h, bolus 0.05 mg/kg IV, CRI 0.02 mg/kg/min, score scale 0-20) is listed as 14; in data set [1] (setting [3]), 8; in data set [1] (age 6 ¾ h, bolus 0.2 mg/kg IV) it was 15. Further, the NB score in data set [1] (by 15 min after cessation of the infusion or the final bolus, standing, mild obtundation) is listed as 9; in data set [1] (by 30 min after infusion, foal appeared normal) it was 0; in data set [1] (infusion of higher concentrations (0.1 and 0.2 mg/kg bwt), foal recumbent, stuporous, unresponsive), 16. Besides, the “Long-term NB effects following the infusion” value in data set [1] (observed hourly for 6 h, then at 12 h intervals for 2 days) is recorded as “No long-term NB effects were observed”. The Allopregnanolone plasma concentration is recorded as 478,909 pg/mL in data set [2] (age 6 ¼ h, bolus 0.05 mg/kg IV, CRI 0.02 mg/kg/min); 126,566 pg/mL in data set [2] (setting [3]); 466,208 pg/mL in data set [2] (age 6 ¾ h, bolus 0.2 mg/kg IV).
